These are literature values, as cited in patent publication US20050002962A1, “Immunostimulatory agents in botanicals” (priority 2003, published 2005).

In one series the test system is macrophages. Conditions: 250 μg/ml.
Another series relates to mice. To be noted: mouse, in vivo.

Take arabinogalactan: in the series with macrophages, the “macrophage IL-1 production, of maximal E. coli LPS (10 μg/ml)” value is reported as 20% and the “macrophage interferon-β production versus maximal E. coli LPS (10 μg/ml)” value was “equal to”. On to echinacoside, for which the carbon clearance entry in the series with mice is “inactive”.

For the molecule `O=C(/C=C/c1ccc(O)c(O)c1)O[C@@H](C(=O)O)[C@@H](OC(=O)/C=C/c1ccc(O)c(O)c1)C(=O)O` [cichoric acid, Cichoric acid], the carbon clearance result with mice was “enhanced carbon clearance”.
